Measurements taken from article PMC10156173, “GUN4 appeared early in cyanobacterial evolution” (PNAS Nexus, 2023).

Experiments:
[1] = target: T1, CrGUN4 (Chlamydomonas GUN4) (Chlamydomonas reinhardtii, UniProt A8I5N5); test: absorption spectrum of purified protein co-expressed with PCB biosynthesis in E. coli; type: binding; conditions: TKKG buffer (25 mM TES-KOH pH 7.8, 100 mM KCl, 10% glycerol); peaks at 368 and 674 nm
T1 construct: gene CHLRE_05g246800v5; in-frame His-tagged fusion in pET28a; expressed in E. coli C41 with pKT271 (PCB biosynthesis); Ni-NTA purified
T1 sequence (A8I5N5 entry or part of it): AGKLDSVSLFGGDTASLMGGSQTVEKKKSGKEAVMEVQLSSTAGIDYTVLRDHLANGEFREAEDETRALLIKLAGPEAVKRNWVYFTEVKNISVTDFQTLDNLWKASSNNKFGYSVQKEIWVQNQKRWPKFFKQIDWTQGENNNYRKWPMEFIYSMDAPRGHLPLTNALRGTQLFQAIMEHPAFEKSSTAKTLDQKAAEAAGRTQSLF

[2] = target: T2, CrGUN4 (Chlamydomonas GUN4) (Chlamydomonas reinhardtii, UniProt A8I5N5, N219G); test: as above; conditions: TKKG buffer (25 mM TES-KOH pH 7.8, 100 mM KCl, 10% glycerol); no PCB binding detected
T2 construct: gene CHLRE_05g246800v5; in-frame His-tagged fusion in pET28a; expressed in E. coli C41 with pKT271 (PCB biosynthesis); Ni-NTA purified
T2 sequence (A8I5N5 entry or part of it N219G): as the sequence (A8I5N5 entry or part of it) above, with N167G counted along it

Question: For CC=C1C(=CC2=NC(=Cc3[nH]c(C=C4NC(=O)C(CC)=C4C)c(C)c3CCC(=O)O)C(CCC(=O)O)=C2C)NC(=O)[C@@H]1C [PCB], which “absorption spectrum of purified protein co-expressed with PCB biosynthesis in E.” value [1] is on record?
Answer: The value was “Wild-type CrGUN4 contains a small amount of bilin as shown by characteristic peaks”.

Question: And the “bilin absorbance peaks (368 and 674 nm)” value [2]?
Answer: The value was “these peaks are absent in the N219G variant”.
